The values that follow are results of earlier work, collected in patent US8193207B2, “Lactam compounds and methods of using the same” (Incyte Corporation, priority 2005, dated 2012).

The data set has as its target T1, 11βHSD1 in the eye (Homo sapiens, UniProt P28845).
T1 construct: host or cells: eye tissue (non-pigmented epithelial cells) of healthy volunteers, in vivo
Particulars: healthy volunteers; after seven days of carbenoxolone treatment.

T1 sequence (P28845 whole entry): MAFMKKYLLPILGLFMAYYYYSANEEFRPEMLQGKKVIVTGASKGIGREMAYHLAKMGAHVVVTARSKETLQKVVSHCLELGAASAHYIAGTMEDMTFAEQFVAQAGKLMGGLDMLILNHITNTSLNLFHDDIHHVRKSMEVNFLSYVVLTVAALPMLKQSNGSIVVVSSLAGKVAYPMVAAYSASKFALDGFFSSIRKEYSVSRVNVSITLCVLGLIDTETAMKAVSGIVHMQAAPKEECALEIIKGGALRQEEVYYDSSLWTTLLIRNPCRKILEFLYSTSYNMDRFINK

Consider `CC1(C)[C@@H](OC(=O)CCC(=O)O)CC[C@]2(C)[C@H]3C(=O)C=C4[C@@H]5C[C@@](C)(C(=O)O)CC[C@]5(C)CC[C@@]4(C)[C@]3(C)CC[C@@H]12` [carbenoxolone], for which the IOP reduction was 18%.
